Source: patent US12371434B2, “MLL1 inhibitors and anti-cancer agents” (NOVARTIS AG, priority 2020, dated 2025)

Key:
[1] = target: wild type MLL1 four-member complex (MLL1-4C) (Homo sapiens, UniProt Q03164); experiment: MLL1 LC-MS assay; type: biochemical; conditions: 30 nM MLL1-4C, 2.5 μM SAM, 10 μM H3K4me0; SAH production by LC-MS/MS; read-out: MLL1 LCMS
Protocol: The compounds of the present disclosure were serially and separately diluted 3-fold in DMSO to obtain a total of eight or twelve concentrations. Then the test compounds at each concentration (120 nL of each) were transferred by Mosquito into white Proxiplate plus 384-well microplate (PerkinElmer). Solutions (6 μL) of 60 nM wild type MLL1 four-member complex (MLL1-4C) and 5 μM SAM in the reaction buffer (20 mM Tris-HCl, pH8.0, 0.01% Tween 20, 1 mM DTT, 10 mM MgCl2, 0.01% BSA) were added to the wells that were then incubated with the test compound for 20 min. A 6 μL solution of 20 μM of the peptide substrate H3K4me0 (histone H3[1-21]-Biotin) in the reaction buffer was added to initiate each reaction. The final components in the reaction solution include 30 nM MLL1-4C, 2.5 μM SAM, and 10 μM H3K4me0 with varying concentration of the compounds. A positive control consisted of 30 nM MLL1-4C, 2.5 μM SAM, and 10 μM substrate in the absence of the test compound, and a negative control consisted of 2.5 μM SAM, and 10 μM substrate only. Each reaction was incubated at rt for 120 min, then stopped by addition of 3 μL per of quench solution (2.5% TFA with 320 nM d4-SAH). The reaction mixture was centrifuged (Eppendorf centrifuge 5810, Rotor A-4-62) for 2 min at 2000 rmp. The SAH production from the enzymatic assays were monitored by LC-MS/MS on an API 4000 triple quadrupole mass spec with TurboIon Spray (Applied Biosystem) coupled with Prominenece UFLC(Shimazu). The level of SAH production were then normalized based on the values coming from the positive and negative controls to give percent enzyme activities. The data were then fit to a dose response equation using the program Helios (Novartis) to get the IC50 values of the test compounds.

[2] = test system: H3K4me3 in MV4-11 cells; experiment: MV4-11 H3K4Me3 cellular ELISA assay; type: cell-based; conditions: Homo sapiens, 48 hours, H3K4me3 signal normalized to total H3
Protocol: MV4-11H3K4Me3 Cellular ELISA Assay
MV4-11 (ATCC® CRL-9591™) was cultured with RPMI1640 medium (Thermo Fisher Scientific, cat #11875) supplemented with 10% FBS (Thermo Fisher Scientific, cat #10099141) and 50 U/ml Penicillin-Streptomycin (Thermo Fisher Scientific, cat #10378016) in humidified incubator at 37° C., 5% CO2.
200 nL compounds dissolved in DMSO were serially diluted at 1:3 ratio for 12 points starting from 10 mM and dispensed into each wells of cell culture plates (PDL-coated ViewPlate-384 Black, FTC, PerkinElmer, #6007710). 3,750 MV4-11 cells in 40 μL culture medium were seeded into each well and treated with desired concentration for 48 hours. After treatment, wash cells with cold phosphate based buffer (PBS, pH 7.4) and aspirate the remaining PBS buffer. Crude histone lysate was extracted by 40 μL 0.5M HCl for 1 hour in 4° C. following neutralization by adding 32 μL neutralization buffer (0.5M Sodium phosphate dibasic, pH˜12.5, 1.25 mM Dithiothreitol, Promega #V3151, Protease Inhibitor Cocktail, Sigma #8340) for each well. 5 μL and 20 μL of histone lysate was loaded to ELISA plate (384 Well Plates, PE HB, White, 6005620) for detection of total H3 and H3K4me3, respectively. Shake the plates gently in 4° C. for overnight. After histone binding, plates were washed with 80 μL PBS/T (PBS with 0.05% Tween-20) and blocked with 50 μL 3% BSA diluted in PBS/T per well for 1 hour. Incubate wells with primary antibody for 1 hour at room temperature using anti-H3K4me3 (CST #9727) and anti-total H3 (CST #9715) diluted 1:2000 in 3% BSA. Plates were then washed with PBS/T for 3 times and incubated with horseradish peroxidase (HRP) conjugated secondary antibody (CST #7074, 1:5000) for 1 hour at room temperature. The abundance of H3K4me3 and total H3 were measured by ECL substrates chemiluminesce (Pierce, #34080) on a plate reader (PerkinElmer EnVison 2104 Mutilable Reader). Percentage inhibition was calculated against DMSO control after normalization of H3K4me3 signal to H3 signal for individual samples. The data were then fit to a dose response curve using GraphPad Prism for IC50 calculation.

[3] = target: wild type MLL1 five-member complex (MLL1-5C) (Homo sapiens, UniProt Q03164); experiment: MLL1 Flashplate assay; type: biochemical; conditions: 2.5 nM MLL1-5C, 0.5 μM 3H-SAM, 1 μM H3K4me0; read-out: MLL1 flash plate
Protocol: MLL1 Flashplate Assay To assess the compound potency in MLL1 Flashplate assay, compounds were serially diluted 3-fold in DMSO to obtain a total of twelve concentrations. Then the test compounds at each concentration (250 nL of each) were transferred by Mosquito into Corning #3675 384-well plate. Solutions (15 μL) of 4.2 nM wild type MLL1 five-member complex (MLL1-5C) in the assay buffer (20 mM Tris-HCl, pH8.0, 0.01% Tween 20, 1 mM DTT, 0.01% BSA) were added to the wells. A 10 μL solution of 2.5 μM of the peptide substrate H3K4me0 (histone H3[1-21]-Biotin) and 1.25 μM ^3H-SAM in the reaction buffer was then added to initiate each reaction. The final components in the reaction solution include 2.5 nM MLL1-5C, 0.5 μM ^3H-SAM, and 1 μM H3K4me0 with varying concentration of the compounds. A positive control consisted of 2.5 nM MLL1-5C, 0.5 μM ^3H-SAM, and 1 μM substrate in the absence of the test compound, and a negative control consisted of 0.5 μM ^3H-SAM, and 1 μM substrate only. Each reaction was incubated at rt for 90 min, then stopped by addition of 5 μL per of quench solution (0.5 mM SAM in assay buffer). 25 μL of each reaction solution was transferred to FlashPlate streptavidin 384-well microplate (PerkinElmer). After at least 1 h incubation at rt, the wells were washed three times with 0.1% Tween-20 in dH2O using the BioTek plate washer. The plates were then read in MicroBeta (PerkinElmer). The radioactive readouts were then normalized based on the values coming from the positive and negative controls to give percent enzyme activities. The data were then fit to a dose response equation using the program Helios to get the IC50 values of the test compounds.

Compound	IC50 [1] [nM]	IC50 [2] [nM]	IC50 [3] [nM]
COC[C@@H](N)CCOc1cc(Cl)cc(C)c1Cn1cnc2c(N)ncnc21 [Example 3, (S)-9-(2-(3-amino-4-methoxybutoxy)-4-chloro-6-methylbenzyl)-9H-purin-6-amine]	> 100	> 3000	–
Nc1ncc(Cl)c2c1ncn2Cc1c(Cl)cc(Cl)cc1OCCCC(N)C(=O)O (stereo not shown) [Example 28, 2-amino-5-(2-((4-amino-7-chloro-1H-imidazo[4,5-c]pyridin-1-yl)methyl)-3,5-dichlorophenoxy) pentanoic acid]	> 100	–	–
COC(=O)[C@H](N)CCCOc1ccc(Cl)c(Cl)c1Cn1cnc2c(N)ncnc21 [Example 33, methyl (R)-2-amino-5-(2-((6-amino-9H-purin-9-yl)methyl)-3,4-dichlorophenoxy)pentanoate]	< 50	–	–
COC[C@H](N)CCCOc1cccc(Cl)c1Cc1cnc2c(N)ncnn12 [Example 6, (R)-7-(2-((4-amino-5-methoxypentyl)oxy)-6-chlorobenzyl)imidazo[2,1-f][1,2,4]triazin-4-amine]	> 100	–	–
COC[C@H](N)CCCOc1ccccc1Cc1cnc2c(N)ncnn12 [Example 7, (R)-7-(2-((4-amino-5-methoxypentyl)oxy)benzyl)imidazo[2,1-f][1,2,4]triazin-4-amine]	> 100	–	–
COC[C@H](N)CCCOc1c(Cl)cccc1Cc1cnn2c(N)ncnc12 [Example 14, (R)-8-(2-((4-amino-5-methoxypentyl)oxy)-3-chlorobenzyl)pyrazolo[1,5-a][1,3,5]triazin-4-amine]	> 100	–	–
CN[C@H](CCCOc1cc(Cl)cc(Br)c1Cn1cnc2c(N)ncnc21)COC [Example 22, (R)-9-(2-bromo-4-chloro-6-((5-methoxy-4-(methylamino)pentyl)oxy)benzyl)-9H-purin-6-amine]	> 100	–	> 100
COC[C@H](N)CCOc1cc(Cl)cc(Br)c1Cn1cnc2c(N)ncnc21 [Example 2, (R)-9-(2-(3-amino-4-methoxybutoxy)-6-bromo-4-chlorobenzyl)-9H-purin-6-amine]	> 100	–	> 100
CC(C)c1nc(N)c2ncn(Cc3c(Cl)cc(Cl)cc3OCCC[C@@H](N)C(=O)O)c2n1 [Example 26, (R)-2-amino-5-(2-((6-amino-2-isopropyl-9H-purin-9-yl)methyl)-3,5-dichlorophenoxy)pentanoic acid]	> 100	–	–
COC[C@H](N)CCCOc1cc(Cl)ccc1Cc1cnn2c(N)ncnc12 [Example 13, (R)-8-(2-((4-amino-5-methoxypentyl)oxy)-4-chlorobenzyl)pyrazolo[1,5-a][1,3,5]triazin-4-amine]	> 100	–	–
Nc1ncnc2c1ncn2Cc1c(OCC[C@H](N)C(=O)O)ccc(F)c1F [Example 25, O-(2-((6-amino-9H-purin-9-yl)methyl)-3,4-difluorophenyl)-L-homoserine]	> 100	–	–
COC[C@H](N)CCCOc1ccc(Cl)c(Cl)c1Cn1cnc2c(N)ncc(Cl)c21 [Example 18, (R)-1-(6-((4-amino-5-methoxypentyl)oxy)-2,3-dichlorobenzyl)-7-chloro-1H-imidazo[4,5-c]pyridin-4-amine]	50 to 100	> 3000	–
CCc1cc(Cl)cc(OCC[C@H](N)COC)c1Cn1cnc2c(N)ncnc21 [Example 4, (S)-9-(2-(3-amino-4-methoxybutoxy)-4-chloro-6-ethylbenzyl)-9H-purin-6-amine]	> 100	> 3000	–
NCCCCOc1cc(Cl)cc(Cl)c1Cn1cnc2c(N)nccc21 [Example 46, 1-(2-(4-aminobutoxy)-4,6-dichlorobenzyl)-1H-imidazo[4,5-c]pyridin-4-amine]	> 100	–	–
NC(=O)[C@H](N)CCCOc1cc(Cl)cc(Cl)c1Cn1cnc2c(N)ncc(Cl)c21 [Example 38, (R)-2-amino-5-(2-((4-amino-7-chloro-1H-imidazo[4,5-c]pyridin-1-yl)methyl)-3,5-dichlorophenoxy)pentanamide]	> 100	–	–
COC[C@H](N)CCCOc1cccc(Cl)c1Cc1cnn2c(N)ncnc12 [Example 11, (R)-8-(2-((4-amino-5-methoxypentyl)oxy)-6-chlorobenzyl)pyrazolo[1,5-a][1,3,5]triazin-4-amine]	> 100	> 3000	–
CNC(=O)[C@H](N)CCCOc1ccc(Cl)c(Cl)c1Cn1cnc2c(N)ncnc21 [Example 40, (R)-2-amino-5-(2-((6-amino-9H-purin-9-yl)methyl)-3,4-dichlorophenoxy)-N-methylpentanamide]	> 100	–	–
COC[C@H](N)CCCOc1cccc(Br)c1Cc1cnn2c(N)ncnc12 [Example 10, (R)-8-(2-((4-amino-5-methoxypentyl)oxy)-6-bromobenzyl)pyrazolo[1,5-a][1,3,5]triazin-4-amine]	> 100	–	–
Nc1ncnn2c(Cc3c(OCCC[C@@H](N)C(=O)O)ccc(Cl)c3Cl)cnc12 [Example 24, (R)-2-amino-5-(2-((4-aminoimidazo[2,1-f][1,2,4]triazin-7-yl)methyl)-3,4-dichlorophenoxy) pentanoic acid]	50 to 100	> 3000	–
NC(=O)[C@H](N)CCCOc1ccc(Cl)c(Cl)c1Cc1cnc2c(N)ncnn12 [Example 35, (R)-2-amino-5-(2-((4-aminoimidazo[2,1-f][1,2,4]triazin-7-yl)methyl)-3,4-dichlorophenoxy)pentanamide]	> 100	> 3000	–
COC[C@H](N)CCCOc1ccccc1Cc1cnn2c(N)ncnc12 [Example 12, (R)-8-(2-((4-amino-5-methoxypentyl)oxy)benzyl)pyrazolo[1,5-a][1,3,5]triazin-4-amine]	> 100	–	–
COC[C@H](N)CCCOc1cc(Cl)cc(Br)c1Cc1cnn2c(N)ncnc12 [Example 9, (R)-8-(2-((4-amino-5-methoxypentyl)oxy)-6-bromo-4-chlorobenzyl)pyrazolo[1,5-a][1,3,5] triazin-4-amine]	> 100	> 3000	–
